Source: PubChem BioAssay (NCI)
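96-well plates; 48 h exposure; 5 concentrations. Endpoints by linear interpolation between flanking doses. Not reached: highest tested concentration assigned. TGI: concentration producing complete growth inhibition.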

Experiments:
Experiment in all cases: NCI tumour cell line growth inhibition, 48 h
A549 NSCLC = system: A549 NSCLC
HOP-62 NSCLC = system: HOP-62 NSCLC
HT29 colon = system: HT29 colon
K-562 leukemia = system: K-562 leukemia
KM12 colon = system: KM12 colon
MALME-3M melanoma = system: MALME-3M melanoma
MCF7 breast = system: MCF7 breast
MDA-MB-435 = system: MDA-MB-435
OVCAR-8 ovarian = system: OVCAR-8 ovarian
SF-295 CNS = system: SF-295 CNS
SK-MEL-28 melanoma = system: SK-MEL-28 melanoma
SK-OV-3 ovarian = system: SK-OV-3 ovarian
UACC-62 melanoma = system: UACC-62 melanoma
IGROV1 ovarian = system: IGROV1 ovarian
HOP-92 NSCLC = system: HOP-92 NSCLC

| SMILES | TGI (A549 NSCLC) | TGI (HOP-62 NSCLC) | TGI (HT29 colon) | TGI (K-562 leukemia) | TGI (KM12 colon) | TGI (MALME-3M melanoma) | TGI (MCF7 breast) | TGI (MDA-MB-435) | TGI (OVCAR-8 ovarian) | TGI (SF-295 CNS) | TGI (SK-MEL-28 melanoma) | TGI (SK-OV-3 ovarian) | TGI (UACC-62 melanoma) | TGI (IGROV1 ovarian) | TGI (HOP-92 NSCLC) |
| --- | --- | --- | --- | --- | --- | --- | --- | --- | --- | --- | --- | --- | --- | --- | --- |
| CCOc1ccc(N/C(=C(/C(Cl)=C(/Cl)NCCO)[N+](=O)[O-])n2nnc3ccccc32)cc1 | > 100 µM | > 100 µM | 85.3 µM | > 100 µM | > 100 µM | 32.4 µM | 38.8 µM | 35.1 µM | 36.7 µM | > 100 µM | 37.7 µM | > 100 µM | 56.7 µM | – | – |
| CCOC(=O)c1nnsc1NC(=O)Nc1ccc(Cl)cc1 | > 100 µM | > 100 µM | > 100 µM | > 100 µM | > 100 µM | > 100 µM | – | > 100 µM | 41.2 µM | – | > 100 µM | – | > 100 µM | > 100 µM | – |
| O=C1C(Cl)C(c2ccc(Cl)cc2)N1n1cnc2ccccc2c1=O (configuration not stated) | > 100 µM | > 100 µM | > 100 µM | > 100 µM | > 100 µM | > 100 µM | – | – | > 100 µM | > 100 µM | > 100 µM | > 100 µM | > 100 µM | > 100 µM | – |
| CO/C(=N\N=C\c1ccc(OC)cc1OC)c1ccncc1 | > 10 µM | > 10 µM | – | > 10 µM | > 10 µM | > 10 µM | > 10 µM | – | > 10 µM | > 10 µM | > 10 µM | > 10 µM | – | > 10 µM | – |
| COc1cccc(-c2cccc(SC)n2)n1 | > 100 µM | > 100 µM | 93.8 µM | > 100 µM | > 100 µM | – | > 100 µM | 86.8 µM | > 100 µM | > 100 µM | > 100 µM | > 100 µM | > 100 µM | > 100 µM | 67.4 µM |
| CC(=O)c1c(O)ccc2c1CC(CC=O)O2 (configuration not stated) | > 100 µM | > 100 µM | > 100 µM | > 100 µM | > 100 µM | > 100 µM | – | – | > 100 µM | > 100 µM | > 100 µM | > 100 µM | > 100 µM | > 100 µM | > 100 µM |
| NC(=O)C12C3C4C1C1C2C3C41C(N)=O (configuration not stated) | > 100 µM | > 100 µM | > 100 µM | > 100 µM | > 100 µM | – | – | – | > 100 µM | > 100 µM | > 100 µM | > 100 µM | > 100 µM | > 100 µM | > 100 µM |
| CCOC(OCC)c1ccc(/C=C/c2cc(OC)c(OC)c(OC)c2)cc1 | 95.2 µM | 56.6 µM | 33.6 µM | 39.8 µM | – | 43.8 µM | – | – | 76.3 µM | 40.4 µM | 56.7 µM | – | 33.2 µM | > 100 µM | 64.7 µM |
| COc1ccc(/C=C2\N=C(c3ccccc3)N(Nc3nnc(NN4C(=O)/C(=C/c5ccc(OC)cc5)N=C4c4ccccc4)c4ccccc34)C2=O)cc1 | > 100 µM | > 100 µM | > 100 µM | > 100 µM | 54.3 µM | – | – | – | > 100 µM | > 100 µM | > 100 µM | – | > 100 µM | > 100 µM | > 100 µM |
| CCOC(=O)C1=C(C)N(C)C(=S)NC1c1cccc(O)c1 (configuration not stated) | > 100 µM | > 100 µM | > 100 µM | > 100 µM | > 100 µM | – | > 100 µM | 34.9 µM | > 100 µM | > 100 µM | > 100 µM | > 100 µM | > 100 µM | > 100 µM | 75.1 µM |
| COC1=CC(C2c3cc4c(cc3[C@@H](Nc3ccc([N+](=O)[O-])cc3)C3COC(=O)[C@H]23)OCO4)=CC(=O)C1=O (some centres not stated) | 10.6 µM | 2.47 µM | 35.8 µM | > 96.6 µM | 26.4 µM | 26.4 µM | – | – | 40.4 µM | 7.47 µM | > 94.8 µM | 6.98 µM | 8.96 µM | > 65.2 µM | > 53 µM |
| COC(=O)[C@H]1C=C[C@@H](C)n2c(=O)c3ccccc3c(=O)n21 | > 100 µM | > 100 µM | > 100 µM | > 100 µM | > 100 µM | > 100 µM | – | – | > 100 µM | > 100 µM | > 100 µM | > 100 µM | – | > 100 µM | > 100 µM |
| CC1=Nc2c([nH]c(=S)[nH]c2=O)NC(c2ccc(Cl)c(Cl)c2)C1 (configuration not stated) | 47.5 µM | > 100 µM | 59.6 µM | > 100 µM | 32.3 µM | > 100 µM | – | – | 38.2 µM | 46.3 µM | 36.7 µM | 95.6 µM | > 63.7 µM | 40.8 µM | > 100 µM |
| NC1=NC2(O)c3ccccc3C(=O)C2(O)N1 (configuration not stated) | > 100 µM | > 100 µM | > 100 µM | > 100 µM | > 100 µM | > 100 µM | – | – | > 100 µM | > 100 µM | > 100 µM | > 100 µM | > 100 µM | > 100 µM | > 100 µM |
| COc1ccc(-c2onc(-c3c(C)cc(C)cc3C)c2C2=NCCCN2)cc1 | > 100 µM | > 100 µM | > 100 µM | > 100 µM | > 100 µM | > 100 µM | – | – | > 100 µM | 56.6 µM | > 100 µM | > 100 µM | > 100 µM | > 100 µM | – |
| CCOC(=O)c1cc(C2CCN(CC(C)CC)C2=S)c(C(=O)/C=C(/C)N)[nH]1 (configuration not stated) | – | > 50 µM | > 50 µM | > 50 µM | > 50 µM | > 50 µM | > 50 µM | > 50 µM | > 50 µM | > 50 µM | – | > 50 µM | > 50 µM | > 50 µM | – |
| NC12CC3CC(C1)CC(Cl)(C3)C2 | > 100 µM | > 100 µM | > 100 µM | > 100 µM | > 100 µM | > 100 µM | – | – | > 100 µM | – | > 100 µM | > 100 µM | > 100 µM | > 100 µM | > 100 µM |
| CN(C)CCCSc1c2ccccc2nc2cc(NCC(=O)Nc3ccccc3-c3ccccc3NC(=O)CNc3ccc4c(SCCCN(C)C)c5ccccc5nc4c3)ccc12 | > 100 µM | > 100 µM | > 100 µM | > 100 µM | > 100 µM | > 100 µM | – | – | > 100 µM | > 100 µM | > 100 µM | > 100 µM | > 100 µM | > 100 µM | > 100 µM |
